Calls of active or inactive are those of the source. The calls are words filed in the database; no cut-off is given here.
Columns and labels:
[1] = test system: Leishmania major; assay: Antileishmanial activity against Leishmania major promastigotes at 20 uM; assay type: functional, organism-based
[2] = target: T1, Cathepsin B (Homo sapiens, UniProt P07858); assay: Inhibition of human cathepsin-B using Z-Phe-Arg-AMC as substrate by fluorometric assay
[3] = target: T2, Falcipain 2 (Plasmodium falciparum, UniProt Q9N6S8); assay: Inhibition of Plasmodium falciparum falcipain 2 using Z-Phe-Arg-AMC as substrate by fluorometric assay
T2 sequence (Q9N6S8 whole entry): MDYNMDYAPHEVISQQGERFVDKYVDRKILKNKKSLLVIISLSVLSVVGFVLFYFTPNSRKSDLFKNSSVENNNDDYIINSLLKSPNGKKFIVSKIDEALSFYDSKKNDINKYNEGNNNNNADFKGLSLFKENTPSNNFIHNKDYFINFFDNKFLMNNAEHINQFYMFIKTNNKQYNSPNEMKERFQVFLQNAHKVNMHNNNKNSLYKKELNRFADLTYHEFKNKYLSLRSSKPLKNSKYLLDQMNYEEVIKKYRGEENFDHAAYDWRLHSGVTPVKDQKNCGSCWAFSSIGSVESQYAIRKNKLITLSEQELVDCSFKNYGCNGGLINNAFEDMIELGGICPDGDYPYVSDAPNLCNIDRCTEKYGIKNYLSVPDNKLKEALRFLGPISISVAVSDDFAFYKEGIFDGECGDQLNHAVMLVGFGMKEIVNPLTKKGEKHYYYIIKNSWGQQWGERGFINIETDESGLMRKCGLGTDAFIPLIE

[4] = target: T3, Procathepsin L (Homo sapiens, UniProt P07711); assay: Inhibition of human cathepsin-L using Z-Phe-Arg-AMC as substrate by fluorometric assay
Target sequence in this assay (P07711 whole entry): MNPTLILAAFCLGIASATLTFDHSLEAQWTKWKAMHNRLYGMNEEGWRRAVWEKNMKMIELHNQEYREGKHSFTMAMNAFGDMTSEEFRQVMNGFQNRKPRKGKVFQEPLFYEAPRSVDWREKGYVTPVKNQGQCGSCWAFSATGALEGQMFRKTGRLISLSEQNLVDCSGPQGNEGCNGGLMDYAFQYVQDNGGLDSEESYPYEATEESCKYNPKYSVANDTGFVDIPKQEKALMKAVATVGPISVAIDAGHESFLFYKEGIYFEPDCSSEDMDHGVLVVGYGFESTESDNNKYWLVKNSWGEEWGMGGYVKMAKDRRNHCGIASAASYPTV

[5] = test system: Leishmania major; assay: Antileishmanial activity against Leishmania major promastigotes; assay type: functional, organism-based
[6] = target: T4, Cathepsin B-like protease (Leishmania major, UniProt P90627); assay: Inhibition of Leishmania major MHOM/IL/81/FE/BNI His6-tagged CPC expressed in Pichia pastoris using Cbz-Phe-Arg-AMC as substrate by fluorescence spectrometric method; settings: read-out: Ki(app)
T4 sequence (P90627 whole entry): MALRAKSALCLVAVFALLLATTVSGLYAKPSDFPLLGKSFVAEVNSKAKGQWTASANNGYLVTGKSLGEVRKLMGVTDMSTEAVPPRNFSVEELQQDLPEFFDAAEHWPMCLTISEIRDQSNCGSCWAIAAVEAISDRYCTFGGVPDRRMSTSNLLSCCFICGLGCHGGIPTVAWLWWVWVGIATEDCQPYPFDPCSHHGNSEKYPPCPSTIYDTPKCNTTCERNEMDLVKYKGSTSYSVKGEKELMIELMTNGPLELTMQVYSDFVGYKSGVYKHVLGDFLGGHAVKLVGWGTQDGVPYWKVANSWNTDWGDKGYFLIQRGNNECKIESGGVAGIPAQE

[7] = test system: J774; assay: Cytotoxicity against mouse J774 cells; assay type: cell-based
[8] = target: T5, Falcipain 2 (Plasmodium falciparum) (UniProt Q9N6S8); assay: Inhibition of Plasmodium falciparum falcipain 2 at 20 uM using Z-Phe-Arg-AMC as substrate by fluorometric assay relative to control
T5 sequence (whole entry): T2 sequence (Q9N6S8 whole entry)

[9] = Inhibition of Leishmania mexicana cathepsin L-like protease CPB2.8 using Z-Phe-Arg-AMC as substrate by fluorometric assay
[10] = target: T3, Procathepsin L; assay: Inhibition of human cathepsin-L at 20 uM using Z-Phe-Arg-AMC as substrate by fluorometric assay relative to control
Target sequence in this assay (P07711 114-333 limits assumed): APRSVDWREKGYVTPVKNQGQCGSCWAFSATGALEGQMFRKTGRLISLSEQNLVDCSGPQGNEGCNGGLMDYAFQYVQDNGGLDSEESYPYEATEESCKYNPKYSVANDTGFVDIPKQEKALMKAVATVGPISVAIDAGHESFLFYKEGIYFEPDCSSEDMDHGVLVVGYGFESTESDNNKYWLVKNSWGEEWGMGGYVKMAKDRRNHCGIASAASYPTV

[11] = target: T1, Cathepsin B; assay: Inhibition of human cathepsin-B at 20 uM using Z-Phe-Arg-AMC as substrate by fluorometric assay relative to control
[12] = test system: Leishmania major; assay: Antileishmanial activity against luciferase-fused Leishmania major amastigotes infected in BMDM after 24 hrs by luminescence assay; assay type: functional, organism-based
[13] = target: Cruzipain (Trypanosoma cruzi) (UniProt P25779); assay: Inhibition of Trypanosoma cruzi cruzain at 20 uM using Z-Phe-Arg-AMC as substrate by fluorometric assay relative to control
[14] = target: Rhodesain (Trypanosoma brucei rhodesiense, UniProt Q95PM0); assay: Inhibition of Trypanosoma brucei rhodesiense rhodesain using Z-Phe-Arg-AMC as substrate by fluorometric assay
Rhodesain, sequence (Q95PM0 whole entry): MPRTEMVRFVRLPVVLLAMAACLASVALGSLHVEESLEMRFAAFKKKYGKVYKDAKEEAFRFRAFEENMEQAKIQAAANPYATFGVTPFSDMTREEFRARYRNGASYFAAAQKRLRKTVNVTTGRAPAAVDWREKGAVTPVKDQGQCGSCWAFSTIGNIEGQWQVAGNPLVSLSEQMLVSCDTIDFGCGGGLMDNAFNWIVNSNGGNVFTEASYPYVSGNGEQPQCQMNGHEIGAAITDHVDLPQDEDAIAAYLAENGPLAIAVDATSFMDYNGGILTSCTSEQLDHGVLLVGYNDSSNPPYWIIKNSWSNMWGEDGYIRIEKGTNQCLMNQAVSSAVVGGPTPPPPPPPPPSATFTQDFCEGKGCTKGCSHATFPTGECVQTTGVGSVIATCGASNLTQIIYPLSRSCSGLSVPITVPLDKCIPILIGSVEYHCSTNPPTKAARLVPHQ

Cruzipain (Trypanosoma cruzi), sequence (P25779 123-467 limits assumed): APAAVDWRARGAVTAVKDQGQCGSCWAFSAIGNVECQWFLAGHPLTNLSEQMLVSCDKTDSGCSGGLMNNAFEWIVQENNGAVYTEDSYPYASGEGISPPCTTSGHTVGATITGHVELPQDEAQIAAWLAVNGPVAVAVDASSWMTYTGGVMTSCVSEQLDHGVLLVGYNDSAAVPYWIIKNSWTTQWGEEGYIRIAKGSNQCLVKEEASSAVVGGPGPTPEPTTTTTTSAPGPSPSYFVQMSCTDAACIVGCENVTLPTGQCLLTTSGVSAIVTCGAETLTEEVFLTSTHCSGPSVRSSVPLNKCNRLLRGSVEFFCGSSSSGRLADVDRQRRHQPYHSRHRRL

Row | Structure (SMILES) | Activity [1] | Ki [2] | Ki [3] | Ki [4] | EC50 [5] | Ki [6] | Activity [7] | inhibition [8] | Ki [9] | inhibition [10] | inhibition [11] | EC50 [12] | inhibition [13] | Ki [14]
1 | CC(C)C[C@H](NC(=O)OC(C)(C)C)C(=O)N1CCC[C@H]1C(=O)N1[C@@H](C(=O)OCc2ccccc2)[C@@H]1C(=O)OCc1ccccc1 | inactive | 114 µM | 0.4 µM | 0.4 µM |  |  |  |  |  |  |  |  |  | 
2 | CC(C)C[C@H](NC(=O)OC(C)(C)C)C(=O)N1CCC[C@@H]1C(=O)N1[C@@H](C(=O)OCc2ccccc2)[C@@H]1C(=O)OCc1ccccc1 |  |  |  |  | 37.4 µM | 18.2 µM | > 250 µM | inactive | 3.8 µM | inactive | inactive | 2.3 µM | inactive | 1.7 µM

Source: ChEMBL document CHEMBL4270566, “New aziridine-based inhibitors of cathepsin L-like cysteine proteases with selectivity for the Leishmania cysteine protease LmCPB2.8” (Eur J Med Chem, 2018)
